The text below walks through data of EPA's ToxValDB 9.5 (doi:10.2903/j.efsa.2006.68r).

One data set has as its system Typhlodromus pyri. Description: LR50; higher = less toxic. The settings on record: not reported; mortality.
The subject of another data set is Aphidius rhopalosiphi. The data set can be described thus: LR50; higher = less toxic. The settings on record: not reported; mortality.
The test system of another data set is Daphnia magna. The settings on record: chronic/long-term; duration: 21 days.
The test system of another data set is Oryctolagus sp. The following applies: reproduction developmental; clinical signs.
The next data set deals with Apis mellifera. The following applies: acute, mortality.
Another data set has as its system Bibionidae. The settings on record: chronic/long-term; duration: 28 days.
The subject of a further data set is Rattus norvegicus. The following applies: for NOAEL: neurology.

Each structure is given as a SMILES string. In brackets after ≈: the same amount, converted by molar mass.

With `CCOP(=O)(SC(C)CC)SC(C)CC` (configuration not stated) [Cadusafos], the values for the LR50 in the data set with Typhlodromus pyri and in the data set on Aphidius rhopalosiphi were 44.4 g/ha and 3.75 g/ha, respectively. Besides, the NOEC in the data set with Daphnia magna is 0.231 mg/L; in the data set with Oncorhynchus mykiss (chronic/long-term, duration: 95 days), 5.22 mg/L; in the data set with Pontoscolex corethrurus (chronic/long-term, reproduction), 1.8 mg/kg; in the data set on Bibionidae it was 32 µg/kg. In addition, the LC50 stood at 10.8 mg/kg-day in the data set on Colinus virginianus (acute, oral, diet, mortality); 130 mg/L (≈ 481 µM) in the data set with Oncorhynchus mykiss (acute, duration: 96 hours, mortality); 12.5 mg/kg in the data set with Pontoscolex corethrurus (acute, mortality). The LD50 in the data set on Colinus virginianus (acute, oral, mortality) came out at 16.1 mg/kg-day; in the data set with Apis mellifera (dermal) it was 1.8 µg/piece; in the data set with Apis mellifera (oral, unspecified), 2.07 µg/piece; with Rattus norvegicus (acute, oral, mortality) it was 37.1 mg/kg. The same molecule gave an NOEL with Colinus virginianus (reproduction developmental) of no less than 1.1 mg/kg-day. The NOAEL stood at 0.3 mg/kg-day in the data set with Oryctolagus sp.; 0.045 mg/kg-day in the data set on Rattus norvegicus (chronic, duration: 2 years, F); 0.067 mg/kg-day with Rattus norvegicus (subchronic, duration: 90 days, oral, diet).

By NOAEL is commonly meant the highest tested level that showed no adverse finding.
